Where two headings read alike, the source gives them in different places.
How the values were obtained:
SKOV-3 cells [1] = assay: Apoptotic/necrotic cell death, Hoechst 33258/propidium iodide staining, fluorescence microscopy; type: cell-based, human; settings: for increase of apoptotic cells compared to untreated control cells: SKOV-3, 24 h treatment with IC50 concentrations, post-treatment 24 and 48 h
Experimental: (§1) To determine the mode of cell death that was triggered by cymantrene derivatives, appropriately stained SKOV-3 cells were evaluated for morphological changes using fluorescence microscopy. For evaluation of apoptosis and autophagy, cells were stained with Hoechst 33258/propidium iodide to distinguish between live, apoptotic and necrotic cells and reveal condensed chromatin and apoptotic bodies (a hallmark of apoptosis), and with acridine orange to detect the development of acidic vesicular organelles (AVOs—a hallmark of autophagy).
(§2) One day prior to the experiments, cells were seeded at the appropriate density into 35 mm diameter dishes. […] At the end of incubation, the medium was aspirated, the cell monolayer was washed twice with pre-warmed PBS, and fresh medium was added. The cells were cultured in drug-free medium for an additional 24 or 48 h to enable them to recover after the exposure to the compounds and to repair any induced damages.
Quantitative analysis of morphological changes that are associated with apoptosis, necrosis, and autophagy were assessed using a fluorescence microscope (Olympus IX70, Tokyo, Japan) at 400× magnification, as described elsewhere. At the indicated time points, cells were washed with PBS, trypsinized, and centrifuged at 1000 rpm (fixed angle rotor, 72× g) for 5 min at 37 °C. The supernatant was removed and the cell pellet (100 µL) was transferred to the Eppendorf tube, mixed with Ho33258 (2 µL, 0.13 mM) and PI (2 µL, 0.23 mM), and incubated for 5 min in the dark at room temperature. At least 300 stained cells were counted in triplicate in each of the three independent experiments. Cells were classified as live, apoptotic, or necrotic on the basis of their morphological and staining characteristics, and each fraction was related to the total cell number.

[2] = tested on: S. aureus ATCC 43300 (MRSA); assay: Antibacterial liquid microdilution (CLSI M07-A8); type: cell-based, Staphylococcus aureus; settings: 18 to 24 h
Experimental: (§3) Organometallic compounds play an increasingly important role in the search for new antibacterial agents. We, therefore, thought to investigate also the bactericidal activity of the newly synthesized cymantrenes 1–7, compound C and CymH. The antibacterial activity of the compounds was tested against Gram-positive methicillin-sensitive Staphylococcus aureus (MSSA), methicillin-resistant S. aureus (MRSA), vancomycin-intermediate S. aureus (VISA), S. epidermidis, and Gram-negative Escherichia coli bacterial strains, and expressed as minimal inhibitory concentration (MIC) values (Table 3).
(§4) The antibacterial activity of CymH, 1–7 and C and the reference drugs penicillin G and polymyxin B was tested by the liquid microdilution method under standard conditions using twofold dilution series, as described in the Clinical and Laboratory Standards Institute (CLSI), reference method M07-A8, and expressed as minimal inhibitory concentration (MIC) values. A panel of Gram-positive bacterial strains, S. aureus ATCC® 29213 (sensitive to methicillin, (MSSA)), S. aureus ATCC® 43300 (resistant to methicillin, (MRSA)), S. aureus ATCC 700787™ (intermediate to vancomycin, (VISA)), and S. epidermidis ATCC 12228™, and one Gram-negative, strain E. coli ATCC BAA-198™ (ESBL) were used. In addition, four clinical isolates of S. aureus (MSSA and MRSA) and two clinical isolates of S. epidermidis that were collected from different patients at the Medical University of Warsaw, Poland, were also tested. The bacterial cells were cultivated on tryptic soy agar (TSA) and nutrient agar (NA), according to ATCC recommendations. All of the strains were incubated at 37 °C. Tested compounds were dissolved in DMSO and then serially diluted twofold with cation-adjusted Mueller-Hinton broth (CAMHB). Then, 95 µL of the dilutions were dispensed into microdilution sterile plates (Mar-Four), followed by the addition of 5 µL of bacteria inoculum containing 5 × 10^4 CFU/mL. The final concentrations of the compounds ranged from 512 to 2 µg/mL. Each compound was tested in triplicate, and Penicillin G (8–0.15 µg/mL) and Polymyxin B (256–0.0625 µg/mL) were used as controls. The plates were incubated at 37 °C for 18 to 24 h depending on the bacterial strain. Thereafter, the absorbance was measured at λ = 540 nm and λ = 595 nm using a Spectrostar Omega microplate reader (BMG Labtech, Offenburg, Germany). The MIC value was defined as the lowest concentration of a compound that reduced the growth by 100%.

[3] = tested on: S. aureus ATCC 29213 (MSSA); assay: Antibacterial liquid microdilution (CLSI M07-A8); type: cell-based, Staphylococcus aureus; settings: 18 to 24 h
Experimental: as §3, §4

[4] = tested on: S. aureus ATCC 700787 (VISA); assay: Antibacterial liquid microdilution (CLSI M07-A8); type: cell-based, Staphylococcus aureus; settings: 18 to 24 h
Experimental: as §3, §4

[5] = tested on: MCF-7 (hormone-responsive breast adenocarcinoma); assay: MTT cytotoxicity assay, MCF-7; type: cell-based, human
Experimental: (§6) Anticancer activity of cymantrenes was determined using a panel of human cancer cell lines that were derived from solid tumors. […] The inhibitory effect of cymantrene derivatives on cell proliferation and growth was determined based on survival curves and was expressed as IC50 values (concentration required to achieve a 50% decrease in cell viability when compared to the viability of untreated control cells) calculated using GraphPad Prism 4.02 software for Windows (GraphPad Software, San Diego, CA, USA). Cell viability was determined by the MTT microplate spectrophotometric cytotoxicity test.
(§7) The cytotoxicity of cymantrene derivatives was evaluated by the MTT microplate methods as described elsewhere [67] by incubating the cells with increasing concentrations of tested compounds for 24 h. Briefly, 0.1 mL of logarithmically growing cells were seeded in a 96-well microplate (5 × 10^4 cells/well) a day before the experiments and after 24 h of culture, tested compounds, dissolved in DMSO, and diluted in culture medium, were added. […] After further incubation for 24 h, the medium was replaced with fresh medium and the cells were allowed to grow for additional 48 h. Then, the medium was aspirated and 0.05 mL of MTT (final concentration of 5 mg/mL medium) added to each well, and the cells were incubated for further 4 h. The absorbance of the product, resulting from the MTT reduction, was read with a microplate reader at 545 nm. The percentage of viable cells was calculated by comparing the absorbance of treated cells with that of the untreated control cells (taken as 100%). The IC50 concentration of each compound was calculated from the cell survival curves using GraphPad Prism 4.02 software for Windows (GraphPad Software, San Diego, CA, USA).

[6] = tested on: SKOV-3 (ovarian adenocarcinoma); assay: MTT cytotoxicity assay, SKOV-3; type: cell-based, human
Experimental: as §6, §7

U87-MG (glioblastoma) = assay: MTT cytotoxicity assay, U87-MG; type: cell-based, human
Experimental: as §6, §7

[7] = tested on: S. epidermidis ATCC 12228; assay: Antibacterial liquid microdilution (CLSI M07-A8); type: cell-based, Staphylococcus epidermidis; settings: 18 to 24 h
Experimental: as §3, §4

[8] = tested on: bloodstream forms of T. brucei clone 427-221a; assay: Trypanocidal assay, resazurin viability assay; type: cell-based, Trypanosoma brucei
Experimental: (§5) All of the cultures were maintained at 37 °C in a humidified atmosphere containing 5% of CO2. Toxicity assays were performed, as previously described, with some modifications. In brief, trypanosomes and HL-60 cells were seeded at an initial cell density of 10^4/mL and 5 × 10^4/mL, respectively, in 96-well plates in a final volume of 200 μL culture medium containing various concentrations of test compounds dissolved in 100% DMSO. […] The controls contained DMSO alone. In all of the experiments, the final DMSO concentration was 0.9%. After 24 h incubation, 20 µL of a 0.5 mM resazurin solution prepared in PBS was added and the cultures were incubated for a further 48 h. Resazurin is a vital dye that, when being reduced by living cells, changes its colour from blue to pink. Thus, by measuring absorbance, the proliferation of cells can be easily determined. The change in absorbance was read with a microplate reader using a test wavelength of 570 nm and a reference wavelength of 630 nm. GI50 values were calculated by linear interpolation according to the method described by Huber and Koella. MIC values were determined microscopically.

[9] = tested on: E. coli ATCC BAA-198 (ESBL); assay: Antibacterial liquid microdilution (CLSI M07-A8); type: cell-based, Escherichia coli; settings: 18 to 24 h
Experimental: as §3, §4

[10] = tested on: MDA-MB-231 (triple negative breast adenocarcinoma); assay: MTT cytotoxicity assay, MDA-MB-231; type: cell-based, human
Experimental: as §6, §7

[11] = tested on: HepG2 (hepatocellular carcinoma); assay: MTT cytotoxicity assay, HepG2; type: cell-based, human
Experimental: as §6, §7

[12] = tested on: human myeloid leukemia HL-60 cells; assay: in vitro
Experimental: as §5

SKOV-3 cells [13] = assay: Autophagy (acidic vesicular organelles, AVOs), acridine orange staining; type: cell-based, human; settings: SKOV-3, IC50 concentrations 24 h, then 0, 24 or 48 h drug-free
Experimental: as §1, §2
The ability of tested compounds to induce autophagosome formation inside cells (the process associated with the induction of autophagy) was evaluated by microscopic examination of the morphology of cells stained with acridine orange (AO).

[14] = tested on: A549 (non-small cell lung carcinoma); assay: MTT cytotoxicity assay, A549
Experimental: Anticancer activity of cymantrenes was determined using a panel of human cancer cell lines that were derived from solid tumors. These included cell lines of estrogen-responsive, doxorubicin resistant, and triple negative breast adenocarcinomas (MCF-7, MCF-7/DX, and MDA-MB-231), ovarian adenocarcinoma (SKOV-3), non-small cell lung carcinoma (A549), hepatocellular carcinoma (HepG2), and glioblastoma (U-87 MG). The inhibitory effect of cymantrene derivatives on cell proliferation and growth was determined based on survival curves and was expressed as IC50 values (concentration required to achieve a 50% decrease in cell viability when compared to the viability of untreated control cells) calculated using GraphPad Prism 4.02 software for Windows (GraphPad Software, San Diego, CA, USA). Cell viability was determined by the MTT microplate spectrophotometric cytotoxicity test.
Anticancer activity of cymantrene derivetives were determined on the basis of their cytotoxic effects on a panel of human cancer cells, as derived from different types of solid tumors: estrogen responsive breast adenocarcinoma (MCF-7), triple negative breast adenocarcinoma (MDA-MB-231), ovarian adenocarcinoma (SKOV-3), non-small cell lung carcinoma (A549), hepatocellular carcinoma (HepG2), and glioblastoma (U-87 MG). Additionally, doxorubicin resistant breast adenocarcinoma cells (MCF-7/Dox) were also included for comparison. All of the cell lines were purchased from American Type Culture Collection (ATCC, Rockville, MD, USA), except the MCF-7/dox cell line, which was a generous gift from Professor Malgorzata Latocha from the Department of Cell Biology, Medical University of Silesia in Katowice, Poland.
Cells were grown as a monolayer in DMEM growth medium, supplemented with 10% FBS, penicillin (10 U/mL) and streptomycin (50 μg/mL), under standard conditions (37 °C, 5% CO2 and 95% air, 100% humidity) and periodically checked for Mycoplasma contamination.
The cytotoxicity of cymantrene derivatives was evaluated by the MTT microplate methods as described elsewhere by incubating the cells with increasing concentrations of tested compounds for 24 h. Briefly, 0.1 mL of logarithmically growing cells were seeded in a 96-well microplate (5 × 10^4 cells/well) a day before the experiments and after 24 h of culture, tested compounds, dissolved in DMSO, and diluted in culture medium, were added. […] After further incubation for 24 h, the medium was replaced with fresh medium and the cells were allowed to grow for additional 48 h. Then, the medium was aspirated and 0.05 mL of MTT (final concentration of […] medium) added to each well, and the cells were incubated for further 4 h. The absorbance of the product, resulting from the MTT reduction, was read with a microplate reader at 545 nm. The percentage of viable cells was calculated by comparing the absorbance of treated cells with that of the untreated control cells (taken as 100%). The IC50 concentration of each compound was calculated from the cell survival curves using GraphPad Prism 4.02 software for Windows (GraphPad Software, San Diego, CA, USA).

[15] = tested on: bloodstream forms of T. brucei clone 427-221a; settings: cited from earlier work
[16] = tested on: human myeloid leukemia HL-60 cells; settings: cited from earlier work
[17] = tested on: MCF-7/DX (estrogen-responsive breast adenocarcinoma resistant to doxorubicin); assay: cells; type: cell-based, human
Experimental: as §7

Row | SMILES | increase of apoptotic cells compared to untreated control cells (SKOV-3 cells [1]) | IC50 [5] [µM] | IC50 [6] [µM] | IC50 (U87-MG (glioblastoma)) [µM] | IC50 [10] [µM] | IC50 [11] [µM] | induction of autophagy (cells containing AVOs) (SKOV-3 cells [13]) | GI50 [15] [µM] | T. brucei MIC [15] [µM] | GI50 [16] [µM] | further results
1 | O=c1[nH]c(=O)n(CCC(O)[C]23[CH]4[CH]5[CH]6[CH]2[Mn]5643)cc1F.[C-]#[O+].[C-]#[O+].[C-]#[O+] (racemic) [Compound 2] | 11 fold | 119 ± 2.97 | 97.5 ± 2.87 | 100 ± 1.01 | > 150 | > 150 | greatest autophagic changes |  |  |  | apoptotic cell fraction predominantly increased (SKOV-3 cells [1]; SKOV-3, IC50 concentrations): late-apoptotic cell fraction; MIC, S. aureus ATCC 43300 (MRSA) [2]: >512 µg/mL; MIC, S. aureus ATCC 29213 (MSSA) [3]: >512 µg/mL; MIC, S. aureus ATCC 700787 (VISA) [4]: >512 µg/mL; MIC, S. epidermidis ATCC 12228 [7]: >512 µg/mL; GI50 ([8]; 50% growth inhibition): > 100 µM; MIC ([8]; concentration at which all cells were killed, determined microscopically): >100 µM; MIC, E. coli ATCC BAA-198 [9]: >512 µg/mL; GI50 [12]: > 100 µM; HL-60 MIC [12]: >100 µM
2 | Nc1ncnc2c1ncn2CCC(O)[C]12[CH]3[CH]4[CH]5[CH]1[Mn]4532.[C-]#[O+].[C-]#[O+].[C-]#[O+] (racemic) [Compound B] | only a three-fold increase | > 150 | > 150 | > 150 | > 150 | > 150 | Less induction of autophagy | 30.8 ± 3.5 | >100 | > 100 | IC50 [14]: > 150 µM; Selectivity GI50 Ratio ([15]; HL-60 / T. brucei): >3.2
3 | NCCCC(N)(C(=O)O)C(F)F (stereo not shown) [DFMO, difluoromethylornithine, reference compound] |  |  |  |  |  |  |  | 23.9 | >125 |  | 
4 | COc1cccc2c1C(=O)c1c(O)c3c(c(O)c1C2=O)C[C@@](O)(C(=O)CO)C[C@@H]3O[C@H]1C[C@H](N)[C@H](O)[C@H](C)O1 [DOX, doxorubicin, reference compound] |  |  |  |  |  |  |  |  |  |  | IC50 ([5]; Homo sapiens, MCF7, 24 h, read-out: cytotoxicity IC50, MCF-7): 0.439 ± 0.026 µM; IC50 ([6]; Homo sapiens, SK-OV-3, 24 h, read-out: cytotoxicity IC50, SKOV-3): 0.858 ± 0.044 µM; IC50 ([14]; Homo sapiens, A549, 24 h, read-out: cytotoxicity IC50, A549): 0.3 ± 0.018 µM; IC50 (U87-MG (glioblastoma); Homo sapiens, U-87 MG, 24 h, read-out: cytotoxicity IC50, U87-MG): 0.61 ± 0.029 µM; IC50 ([10]; Homo sapiens, MDA-MB-231, 24 h, read-out: cytotoxicity IC50, MDA-MB-231): 1.07 ± 0.062 µM; IC50 ([17]; Homo sapiens, MCF7/DX, 24 h, read-out: cytotoxicity IC50, MCF-7/DX): 48.5 ± 2.78 µM; fold less effective against MCF-7/DX cells than MCF-7 cells ([17]; MCF-7/DX vs MCF-7): ~100 fold; IC50 ([11]; Homo sapiens, HepG2, 24 h, read-out: cytotoxicity IC50, HepG2): 0.569 ± 0.021 µM
5 | O=C(CCn1ccc(=O)[nH]c1=O)[C]12[CH]3[CH]4[CH]5[CH]1[Mn]4532.[C-]#[O+].[C-]#[O+].[C-]#[O+] (stereo not shown) [non-fluorinated counterpart] |  |  |  |  |  |  |  | 3.6 | 100 | > 100 | HL-60 MIC [16]: > 100 µM
